From US20200288710A1, “SUBSTITUTED SULPHONAMIDES FOR CONTROLLING ANIMAL PESTS” (BAYER CROPSCIENCE AKTIENGESELLSCHAFT, priority 2016, published 2020) come the findings set out here.

Common to all, as to type: in vivo
One assay has as its system Meloidogyne incognita. The assay is described as follows: Meloidogyne incognita test. The settings on record: 336 h, lettuce, after 14 days, read-out: nematicidal efficacy (formation of galls). In a few lines:
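Active compound in acetone, diluted with water, added to sand-filled vessels with M. incognita eggs/larvae and lettuce seeds. After 14 days, efficacy scored by root gall formation: 100% = no galls, 0% = galls equal to untreated control.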

Assay [1] concerns Myzus persicae. The assay is described as follows: Myzus persicae spray test (Chinese cabbage leaf discs). The settings on record: foliar, 120 h, after 5-6 days, read-out: efficacy. Summed up: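 Chinese cabbage leaf discs infested with all stages of green peach aphid were sprayed with compound formulated in acetone/DMF and emulsifier-containing water. Efficacy in % was scored after 5-6 days, with 100% meaning all aphids killed and 0% none killed.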

In assay [2] the test system is Myzus persicae. The assay is described as follows: Myzus persicae oral test. The settings on record: 120 h, 20 ppm, oral uptake, after 5 days, read-out: efficacy. Summed up:
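Compound dissolved in acetone, diluted in water, then mixed 50:150 μl with IPL41 insect medium (33%+15% sugar). Mixed-population green peach aphids feed through a parafilm seal on the solution; mortality scored as % efficacy after 5 days (100% = all killed).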

With `Cn1cc(C(=O)NS(=O)(=O)c2c(F)cccc2Cl)nc1-c1c(F)cccc1F` [Example 431], the values for the pest or weed control at 20 ppm in the assay on Meloidogyne incognita and with Myzus persicae [2] were 90% and 100%, respectively. Further, the pest or weed control at 500 g/ha in the assay on Myzus persicae [1] was 90%.

In the case of `Cn1cc(C(=O)NS(=O)(=O)c2ccccc2Br)nc1-c1c(F)cccc1F` [Example 119], the pest or weed control at 20 ppm came out at 90% with Meloidogyne incognita and 100% in the assay with Myzus persicae [2]. Besides, in the assay with Myzus persicae [1], the pest or weed control at 500 g/ha was determined as 100%.

Consider `CCc1ccccc1-c1nc(C(=O)NS(=O)(=O)c2ccccc2C)cn1C` [Example 497], for which the values for the pest or weed control at 20 ppm in the assay with Meloidogyne incognita and with Myzus persicae [2] were 90% and 100%, respectively. Further, the pest or weed control at 500 g/ha in the assay with Myzus persicae [1] turned out to be 90%.

In the case of `COc1ccc(Br)cc1S(=O)(=O)NC(=O)c1cn(C)c(-c2c(F)cccc2Cl)n1` [Example 156], the pest or weed control at 20 ppm with Meloidogyne incognita was found to be 90%; in the assay with Myzus persicae [2], 100%. Moreover, in the assay with Myzus persicae [1], the pest or weed control at 500 g/ha amounted to 100%.

As to `CCc1ccccc1S(=O)(=O)NC(=O)c1cn(C)c(-c2cccc(Cl)c2Cl)n1` [Example 553], the pest or weed control at 20 ppm in the assay on Meloidogyne incognita is 90%; with Myzus persicae [2], 100%. In addition, the pest or weed control at 500 g/ha with Myzus persicae [1] was determined as 100%.

On to `COc1ccc(F)cc1S(=O)(=O)NC(=O)c1cn(C)c(-c2ccccc2Cl)n1` [Example 427], for which the figures for the pest or weed control at 20 ppm in the assay on Meloidogyne incognita and in the assay on Myzus persicae [2] were 90% and 100%, respectively. In the assay on Myzus persicae [1], the pest or weed control at 500 g/ha was determined as 100%.

With `CCSc1ccccc1S(=O)(=O)NC(=O)c1cn(C)c(-c2c(F)cccc2F)n1` [Example 169], the figures for the pest or weed control at 20 ppm with Meloidogyne incognita and in the assay with Myzus persicae [2] were 90% and 100%, respectively. For the same molecule, the pest or weed control at 500 g/ha in the assay with Myzus persicae [1] stood at 100%.

With `CCc1ccccc1S(=O)(=O)NC(=O)c1cn(C)c(-c2cccc3ccccc23)n1` [Example 503], the pest or weed control at 20 ppm in the assay with Meloidogyne incognita amounted to 90%; in the assay on Myzus persicae [2], 100%. The pest or weed control at 500 g/ha with Myzus persicae [1] was determined as 90%.

In the case of `Cn1cc(C(=O)NS(=O)(=O)c2c(Cl)cccc2Br)nc1-c1ncccc1F` [Example 595], the values for the pest or weed control at 20 ppm with Meloidogyne incognita and with Myzus persicae [2] were 90% and 100%, respectively. For the same molecule, in the assay with Myzus persicae [1], the pest or weed control at 500 g/ha is 90%.

Take `Cn1cc(C(=O)NS(=O)(=O)c2ccc(Cl)cc2)nc1-c1ccccc1F` [Example 51]: the values for the pest or weed control at 20 ppm with Meloidogyne incognita and in the assay with Myzus persicae [2] were 100% and 90%, respectively. In addition, the pest or weed control at 500 g/ha in the assay with Myzus persicae [1] stood at 90%.

Turning to `Cc1cc(C(=O)NS(=O)(=O)c2ccccc2Cl)nn1-c1ccccc1Cl` [Example 271], the pest or weed control at 20 ppm in the assay on Meloidogyne incognita and with Myzus persicae [2] was 100% each time. The pest or weed control at 500 g/ha with Myzus persicae [1] turned out to be 100%.

Regarding `Cn1nc(C(=O)NS(=O)(=O)c2ccccc2Br)nc1-c1c(F)cccc1F` [Example 158], the pest or weed control at 20 ppm in the assay with Meloidogyne incognita was determined as 90%; in the assay on Myzus persicae [2] it was 100%. For the same molecule, the pest or weed control at 500 g/ha in the assay with Myzus persicae [1] stood at 100%.

Consider `Cn1cc(C(=O)NS(=O)(=O)c2sc(Cl)cc2Br)nc1-c1ccccc1Cl` [Example 426], for which the pest or weed control at 20 ppm with Meloidogyne incognita came to 90%; in the assay with Myzus persicae [2], 100%. In addition, the pest or weed control at 500 g/ha with Myzus persicae [1] stood at 100%.

For `Cn1cc(C(=O)NS(=O)(=O)c2ccccc2Cl)nc1-c1cccc(Cl)c1Cl` [Example 513], the pest or weed control at 20 ppm in the assay on Meloidogyne incognita and with Myzus persicae [2] was 100% throughout. In the assay with Myzus persicae [1], the pest or weed control at 500 g/ha turned out to be 100%.

As to `COc1cccc(OC)c1S(=O)(=O)NC(=O)c1cn(C)c(-c2c(F)cccc2F)n1` [Example 378], the pest or weed control at 20 ppm came out at 90% with Meloidogyne incognita and 100% in the assay with Myzus persicae [2]. Besides, in the assay with Myzus persicae [1] (100 g/ha), the pest or weed control at 100 g/ha was found to be 90%.

Regarding `Cn1cc(C(=O)NS(=O)(=O)c2cccc(Cl)c2)nc1-c1c(F)cccc1F` [Example 45], the pest or weed control at 20 ppm in the assay on Meloidogyne incognita worked out at 100%; in the assay with Myzus persicae [2] it was 90%. For the same molecule, the pest or weed control at 500 g/ha in the assay on Myzus persicae [1] worked out at 90%.
